Key:
Type in all cases: biochemical
Ret human = Ret human (Homo sapiens, UniProt P07949); assay: Kinase profiling, glass-fiber filter technology: Ret; conditions: test concentration of 10^−6 M; read-out: Ret inhibition score
Protocol: (§1) The in vitro inhibition of a panel of kinases was assessed using the glass-fiber filter technology as described by Davies, S. P. et al., Biochem J. (2000), 351; p. 95-105.
(§2) In the glass-fiber filter technology the activity of the kinase of interest is measured using an appropriate substrate that is incubated with the aforementioned kinase protein in the presence of (^33P) radiolabeled ATP. (^33P) Phosporylation of the substrate is subsequently measured as radioactivity bound on a glassfiber-filter.
(§3) All kinases are pre-diluted to a 10× working concentration prior to addition into the assay. The composition of the dilution buffer for each kinase is detailed below.
(§4) All substrates are dissolved and diluted to working stocks in de-ionised water.
(§5) In a final reaction volume of 25 μl, Ret human (5-10 mU) is incubated with 8 mM MOPS pH 7.0, 0.2 mM EDTA, 250 μM KKKSPGEYVNIEFG, 10 mM MgAcetate and [γ-^33P-ATP] (specific activity approx. 500 cpm/pmol, concentration as required). The reaction is initiated by the addition of the MgATP mix. After incubation for 40 minutes at room temperature, the reaction is stopped by the addition of 5 μl of a 3% phosphoric acid solution. 10 μl of the reaction is then spotted onto a P30 filtermat and washed three times for 5 minutes in 75 mM phosphoric acid and once in methanol prior to drying and scintillation counting.

EGFR (h) = EGFR (h) (Homo sapiens, UniProt P00533); assay: Kinase profiling, glass-fiber filter technology: EGFR; conditions: test concentration of 10^−6 M; read-out: EGFR inhibition score
Chain of EGFR (h) (P00533 25-1210): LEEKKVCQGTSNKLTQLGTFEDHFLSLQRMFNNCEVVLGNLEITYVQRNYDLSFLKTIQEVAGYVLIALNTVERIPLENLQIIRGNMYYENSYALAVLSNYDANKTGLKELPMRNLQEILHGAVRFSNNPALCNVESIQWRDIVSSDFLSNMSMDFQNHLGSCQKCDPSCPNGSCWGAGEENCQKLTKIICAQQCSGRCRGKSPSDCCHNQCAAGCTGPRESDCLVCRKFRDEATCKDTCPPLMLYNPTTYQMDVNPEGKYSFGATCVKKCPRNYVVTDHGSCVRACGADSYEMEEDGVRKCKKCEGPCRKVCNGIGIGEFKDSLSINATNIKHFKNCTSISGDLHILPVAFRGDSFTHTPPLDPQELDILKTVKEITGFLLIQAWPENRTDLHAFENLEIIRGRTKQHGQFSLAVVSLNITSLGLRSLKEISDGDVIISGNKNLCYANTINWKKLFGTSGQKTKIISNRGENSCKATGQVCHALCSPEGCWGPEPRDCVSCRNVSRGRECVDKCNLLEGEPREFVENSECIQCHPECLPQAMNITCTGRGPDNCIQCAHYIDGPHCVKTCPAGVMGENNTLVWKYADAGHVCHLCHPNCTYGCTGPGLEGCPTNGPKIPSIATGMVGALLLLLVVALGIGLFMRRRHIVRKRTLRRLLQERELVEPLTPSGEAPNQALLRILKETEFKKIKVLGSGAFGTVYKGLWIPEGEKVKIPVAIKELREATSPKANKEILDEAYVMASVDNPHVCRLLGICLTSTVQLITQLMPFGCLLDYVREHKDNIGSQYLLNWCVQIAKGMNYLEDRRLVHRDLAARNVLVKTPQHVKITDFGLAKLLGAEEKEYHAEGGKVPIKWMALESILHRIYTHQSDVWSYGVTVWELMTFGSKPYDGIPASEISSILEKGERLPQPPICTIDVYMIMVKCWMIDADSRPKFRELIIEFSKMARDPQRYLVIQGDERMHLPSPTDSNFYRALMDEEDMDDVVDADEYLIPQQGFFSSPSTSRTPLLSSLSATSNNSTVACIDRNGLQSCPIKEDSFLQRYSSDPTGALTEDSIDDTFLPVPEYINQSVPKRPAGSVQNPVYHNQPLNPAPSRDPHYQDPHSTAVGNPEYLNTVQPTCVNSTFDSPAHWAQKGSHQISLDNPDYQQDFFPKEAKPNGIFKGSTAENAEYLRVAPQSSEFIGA
Protocol: as §1, §2, §3, §4
as §5, with “EGFR (h)” for “Ret human”, “10 mM MnCl2, 0.1 mg/ml poly(Glu, Tyr) 4:1,” for “250 μM KKKSPGEYVNIEFG,”, “Filtermat A” for “P30 filtermat”

Bmx (h) = target: T1, Bmx (h) (Homo sapiens, UniProt P51813); assay: Kinase profiling, glass-fiber filter technology: Bmx; conditions: test concentration of 10^−6 M; read-out: Bmx inhibition score
T1 sequence (P51813 1-675): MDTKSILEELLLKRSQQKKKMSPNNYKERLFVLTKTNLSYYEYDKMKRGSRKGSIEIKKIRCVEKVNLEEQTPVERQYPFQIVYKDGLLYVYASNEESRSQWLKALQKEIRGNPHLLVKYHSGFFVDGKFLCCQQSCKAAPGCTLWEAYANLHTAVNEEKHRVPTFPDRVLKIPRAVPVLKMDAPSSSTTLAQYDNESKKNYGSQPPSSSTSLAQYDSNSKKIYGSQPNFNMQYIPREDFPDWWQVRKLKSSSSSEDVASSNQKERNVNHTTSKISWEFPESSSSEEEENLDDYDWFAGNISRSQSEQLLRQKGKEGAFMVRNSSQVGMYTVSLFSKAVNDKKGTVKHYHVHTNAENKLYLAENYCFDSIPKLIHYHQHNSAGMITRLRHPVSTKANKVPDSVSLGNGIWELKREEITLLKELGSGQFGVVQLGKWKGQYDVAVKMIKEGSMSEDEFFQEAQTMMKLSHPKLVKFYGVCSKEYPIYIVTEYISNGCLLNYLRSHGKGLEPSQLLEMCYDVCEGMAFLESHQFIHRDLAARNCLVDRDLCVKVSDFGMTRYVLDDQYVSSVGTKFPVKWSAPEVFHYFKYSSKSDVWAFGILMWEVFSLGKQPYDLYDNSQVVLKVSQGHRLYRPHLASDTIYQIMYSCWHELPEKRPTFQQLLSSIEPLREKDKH
Protocol: as §1, §2, §3, §4
as §5, with “Bmx (h)” for “Ret human”, “0.1 mg/ml poly(Glu, Tyr) 4:1,” for “250 μM KKKSPGEYVNIEFG,”, “[γ-33P-ATP]” for “[γ-^33P-ATP]”, “Filtermat A” for “P30 filtermat”

Lck (h) = Lck (h) (Homo sapiens, UniProt P06239); assay: Kinase profiling, glass-fiber filter technology: Lck; conditions: test concentration of 10^−6 M; read-out: Lck inhibition score
Chain of Lck (h) (P06239 whole entry): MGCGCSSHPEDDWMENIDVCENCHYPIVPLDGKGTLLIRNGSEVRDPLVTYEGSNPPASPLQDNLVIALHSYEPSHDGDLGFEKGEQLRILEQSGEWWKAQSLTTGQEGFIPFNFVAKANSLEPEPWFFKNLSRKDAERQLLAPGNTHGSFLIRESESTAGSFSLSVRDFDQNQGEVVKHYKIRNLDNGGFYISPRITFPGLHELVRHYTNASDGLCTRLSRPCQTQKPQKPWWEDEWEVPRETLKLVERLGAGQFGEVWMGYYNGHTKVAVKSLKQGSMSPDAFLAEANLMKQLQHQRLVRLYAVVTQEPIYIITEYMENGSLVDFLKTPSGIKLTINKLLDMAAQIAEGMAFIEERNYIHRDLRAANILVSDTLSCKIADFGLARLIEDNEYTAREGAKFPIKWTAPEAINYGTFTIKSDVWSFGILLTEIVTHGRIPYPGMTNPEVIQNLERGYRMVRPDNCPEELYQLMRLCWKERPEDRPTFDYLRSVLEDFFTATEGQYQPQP
Protocol: as §1, §2, §3, §4
In a final reaction volume of 25 μl, Lck (h) (5-10 mU) is incubated with 50 mM Tris pH 7.5, 0.1 mM EGTA, 0.1 mM Na3VO4, 250 μM KVEKIGEGTYGVVYK (Cdc2 peptide), 10 mM MgAcetate and [γ-^33P-ATP] (specific activity approx. 500 cpm/pmol, concentration as required). The reaction is initiated by the addition of the MgATP mix. After incubation for 40 minutes at room temperature, the reaction is stopped by the addition of 5 μl of a 3% phosphoric acid solution.
10 μl of the reaction is then spotted onto a P30 filtermat and washed three times for 5 minutes in 75 mM phosphoric acid and once in methanol prior to drying and scintillation counting.

Abl (h) = Abl (h) (Homo sapiens, UniProt P00519); assay: Kinase profiling, glass-fiber filter technology: Abl; conditions: test concentration of 10^−6 M; read-out: Abl inhibition score
Chain of Abl (h) (P00519 whole entry): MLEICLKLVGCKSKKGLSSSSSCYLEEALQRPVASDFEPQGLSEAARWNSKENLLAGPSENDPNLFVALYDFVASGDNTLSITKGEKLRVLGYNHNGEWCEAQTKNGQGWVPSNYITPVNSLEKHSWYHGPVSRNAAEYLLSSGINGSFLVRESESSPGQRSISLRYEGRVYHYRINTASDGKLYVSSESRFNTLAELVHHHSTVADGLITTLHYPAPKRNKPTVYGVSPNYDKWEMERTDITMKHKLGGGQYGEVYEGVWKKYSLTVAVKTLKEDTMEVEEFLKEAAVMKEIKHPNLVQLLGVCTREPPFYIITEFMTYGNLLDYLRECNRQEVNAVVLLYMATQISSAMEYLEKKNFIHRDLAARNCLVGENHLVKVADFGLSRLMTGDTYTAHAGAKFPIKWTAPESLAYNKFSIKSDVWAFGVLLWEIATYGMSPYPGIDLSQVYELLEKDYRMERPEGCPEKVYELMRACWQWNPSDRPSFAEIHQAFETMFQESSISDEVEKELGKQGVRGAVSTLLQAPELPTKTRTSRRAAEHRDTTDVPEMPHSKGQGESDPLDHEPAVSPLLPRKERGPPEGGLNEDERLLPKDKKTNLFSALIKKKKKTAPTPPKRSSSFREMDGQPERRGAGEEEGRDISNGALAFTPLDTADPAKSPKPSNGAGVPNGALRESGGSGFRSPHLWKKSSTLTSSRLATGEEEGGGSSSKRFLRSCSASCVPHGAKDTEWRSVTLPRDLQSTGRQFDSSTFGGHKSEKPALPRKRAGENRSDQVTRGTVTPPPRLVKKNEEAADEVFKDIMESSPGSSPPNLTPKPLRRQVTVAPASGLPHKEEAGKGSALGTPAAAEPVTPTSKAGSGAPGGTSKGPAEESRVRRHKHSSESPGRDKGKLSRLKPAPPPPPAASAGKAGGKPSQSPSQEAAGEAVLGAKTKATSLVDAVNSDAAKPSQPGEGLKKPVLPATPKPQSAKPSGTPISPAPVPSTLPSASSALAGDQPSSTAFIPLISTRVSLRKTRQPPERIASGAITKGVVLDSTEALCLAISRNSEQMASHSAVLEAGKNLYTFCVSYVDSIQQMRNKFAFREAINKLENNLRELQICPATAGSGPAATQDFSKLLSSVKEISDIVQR
Protocol: as §1, §2, §3, §4
as §5, with “Abl (h)” for “Ret human”, “50” for “250”, “EAIYAAPFAKKK,” for “KKKSPGEYVNIEFG,”

Chain of Ret human (P07949 29-1114): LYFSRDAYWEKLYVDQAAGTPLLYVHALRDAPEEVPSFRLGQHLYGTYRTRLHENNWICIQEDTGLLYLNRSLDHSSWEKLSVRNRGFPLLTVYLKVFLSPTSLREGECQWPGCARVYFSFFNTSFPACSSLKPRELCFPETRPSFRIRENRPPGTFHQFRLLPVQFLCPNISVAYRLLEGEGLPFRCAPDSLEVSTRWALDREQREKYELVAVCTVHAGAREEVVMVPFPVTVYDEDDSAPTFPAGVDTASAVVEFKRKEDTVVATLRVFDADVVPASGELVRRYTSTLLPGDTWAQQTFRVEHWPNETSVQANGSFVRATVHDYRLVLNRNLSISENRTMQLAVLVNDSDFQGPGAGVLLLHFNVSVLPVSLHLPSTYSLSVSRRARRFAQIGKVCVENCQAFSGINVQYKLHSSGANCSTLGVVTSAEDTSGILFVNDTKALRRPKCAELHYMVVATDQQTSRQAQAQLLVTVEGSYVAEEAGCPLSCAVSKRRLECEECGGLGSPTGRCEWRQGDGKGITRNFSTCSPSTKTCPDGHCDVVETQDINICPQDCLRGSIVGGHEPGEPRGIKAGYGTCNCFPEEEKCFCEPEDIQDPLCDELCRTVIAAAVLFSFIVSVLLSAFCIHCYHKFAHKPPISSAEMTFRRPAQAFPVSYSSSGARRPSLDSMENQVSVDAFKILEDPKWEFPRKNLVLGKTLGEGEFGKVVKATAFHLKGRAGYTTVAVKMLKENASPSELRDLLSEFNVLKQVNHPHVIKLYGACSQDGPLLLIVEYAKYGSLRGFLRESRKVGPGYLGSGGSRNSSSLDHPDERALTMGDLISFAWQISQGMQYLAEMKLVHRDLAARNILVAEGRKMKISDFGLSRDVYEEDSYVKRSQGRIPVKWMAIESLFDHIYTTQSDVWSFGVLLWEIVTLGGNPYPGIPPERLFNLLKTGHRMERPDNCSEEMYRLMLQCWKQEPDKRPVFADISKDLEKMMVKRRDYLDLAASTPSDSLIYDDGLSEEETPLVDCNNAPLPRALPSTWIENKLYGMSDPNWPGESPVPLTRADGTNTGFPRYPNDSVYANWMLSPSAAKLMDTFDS

| Structure (SMILES) | inhibition at 1 µM (Ret human) [%] | inhibition at 1 µM (EGFR (h)) [%] | inhibition at 1 µM (Bmx (h)) [%] | inhibition at 1 µM (Lck (h)) [%] | inhibition at 1 µM (Abl (h)) [%] |
| --- | --- | --- | --- | --- | --- |
| COc1cc2ncnc3c2cc1OCCCN(CCN1CCOCC1)C(=O)CNC(=O)Cc1ccc(Cl)cc1N3 [Compound 15] | 10 to 30 | > 80 |  | 30 to 60 | > 80 |
| CN1CCCCCOc2cc3c(ncnc3cc2OC[C@@H](O)CN2CCS(=O)(=O)CC2)Nc2cc(Br)ccc2C1 [Compound 12] | > 80 | > 80 | 30 to 60 | > 80 |  |
| CN1CCCCCOc2cc3c(ncnc3cc2OCCCNCCS(C)(=O)=O)Nc2cc(Br)ccc2C1 [Compound 14] | > 80 | > 80 | 30 to 60 | > 80 |  |
| C#Cc1ccc2c(c1)Nc1ncnc3cc(OCCCNCCS(C)(=O)=O)c(cc13)OCCCCCN(C)C2 [Compound 20] | > 80 |  | 60 to 80 | > 80 |  |
| CC(=O)NCCNCCCOc1cc2ncnc3c2cc1OCCCCCN(C)Cc1ccc(Br)cc1N3 [Compound 13] | > 80 | > 80 | 60 to 80 | > 80 |  |
| CC(=O)N(CCO)CCCOc1cc2ncnc3c2cc1OCCCNC(=O)[C@H](C)N(C)Cc1cc(F)c(Cl)cc1N3 [Compound 5] | 60 to 80 | > 80 | 30 to 60 | 60 to 80 |  |
| CC(=O)NCCN1CCN(CCCOc2cc3ncnc4c3cc2OCCCNC(=O)[C@H](C)N(C)Cc2cc(F)c(Cl)cc2N4)CC1 [Compound 6] |  | > 80 | 30 to 60 | > 80 | > 80 |

Now from value to compound:

| inhibition at 1 µM (Ret human) [%] | inhibition at 1 µM (EGFR (h)) [%] | inhibition at 1 µM (Bmx (h)) [%] | inhibition at 1 µM (Lck (h)) [%] | inhibition at 1 µM (Abl (h)) [%] | Structure (SMILES) |
| --- | --- | --- | --- | --- | --- |
| > 80 | > 80 | 30 to 60 | > 80 |  | C[C@H]1C(=O)NCCCOc2cc3c(ncnc3cc2OCCCN2CCN(C(=O)OC(C)(C)C)CC2)Nc2cc(Cl)c(F)cc2CN1C [Int. 16] |
|  | > 80 | 60 to 80 | > 80 | > 80 | CN1CCCCCOc2cc3c(ncnc3cc2OC[C@H](O)CNCCOCCO)Nc2cc(Cl)c(F)cc2C1 [Compound 17] |
| > 80 | > 80 | 30 to 60 | > 80 |  | CC(=O)OCCN(C)CCCOc1cc2ncnc3c2cc1OCCCNC(=O)[C@H](C)N(C)Cc1cc(F)c(Cl)cc1N3 [Compound 2] |
| > 80 | > 80 |  | > 80 | 60 to 80 | COCCOCCOc1cc2ncnc3c2cc1OCCCCCN(C)Cc1ccc(Br)cc1N3 [Int. 43] |
| > 80 | > 80 | 60 to 80 | > 80 |  | CN1CCCCCOc2cc3c(ncnc3cc2OCCCN2CCS(=O)(=O)CC2)Nc2cc(Cl)c(F)cc2C1 [Compound 19] |
| > 80 | > 80 | 10 to 30 |  |  | CN1CCCCCOc2cc3c(ncnc3cc2OCCCNC(=O)OC(C)(C)C)Nc2cc(Br)ccc2C1 [Compound 11] |
| 30 to 60 | > 80 |  | 60 to 80 | 10 to 30 | COc1cc2ncnc3c2cc1OCCCN(CCCN1CCOCC1)C(=O)[C@H](CC(C)C)NC(=O)Cc1ccc(Br)cc1N3 [Int. 25] |
| > 80 | > 80 | 30 to 60 | > 80 |  | CC(=O)NCCNCCCOc1cc2ncnc3c2cc1OCCCNC(=O)[C@H](C)N(C)Cc1cc(F)c(Cl)cc1N3 [Compound 4] |
|  | > 80 | 30 to 60 | > 80 | > 80 | CN1CCCCCOc2cc3c(ncnc3cc2OCCCNCCS(C)(=O)=O)Nc2cc(Cl)c(F)cc2C1 [Compound 18] |

Source: patent publication US9688691B2, “Macrocyclic quinazole derivatives and their use as MTKI” (Janssen Pharmaceutica NV, priority 2004, dated 2017)
